Source: patent US7825128B2, “Sulfoximine-substituted pyrimidines, processes for production thereof and use thereof as drugs” (Bayer Schering Pharma AG, priority 2005, dated 2010)

Experiments:
Format in all cases: biochemical
Aurora-C = biological target: T1, Aurora-C (Homo sapiens, UniProt Q9UQB9); assay: Aurora-C kinase assay; details: 3 μM ATP
T1 construct: made in house; host or cells: transiently transfected HEK293 cells
T1 sequence (Q9UQB9 1-309): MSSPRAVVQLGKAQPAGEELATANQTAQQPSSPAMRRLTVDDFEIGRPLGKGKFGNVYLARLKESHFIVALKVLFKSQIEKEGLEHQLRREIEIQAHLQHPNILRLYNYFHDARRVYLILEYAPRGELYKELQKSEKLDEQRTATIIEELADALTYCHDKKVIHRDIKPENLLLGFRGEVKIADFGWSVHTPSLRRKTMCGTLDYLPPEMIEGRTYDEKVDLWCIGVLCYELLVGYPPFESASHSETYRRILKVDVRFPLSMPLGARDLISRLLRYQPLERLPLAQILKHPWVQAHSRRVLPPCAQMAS
Protocol: Recombinant Aurora-C Protein was expressed in transiently transfected HEK293 cells and then purified. As the kinase substrate, the biotinylated peptide with the amino acid sequence biotin-FMRLRRLSTKYRT, which was purchased from the company Jerini AG in Berlin, was used.
Aurora-C [5 nM in the test mixture, test volume 5 μl] was incubated for 90 mins at 22° C. in the presence of different concentrations of test substances (0 μM, and 10 data points within the range 0.001-20 μM in duplicate values) in assay buffer [25 mM HEPES pH 7.4, 0.5 mM MnCl2, 0.1 mM Na orthovanadate, 2.0 mM dithiothreitol, 0.05% bovine serum albumin (BSA), 0.01% Triton X-100, 3 μM adenosine trisphosphate (ATP), 0.67 nCi/μl gama-P33-ATP, 2.0 μM substrate peptide biotin-FMRLRRLSTKYRT, 1.0% dimethylsulfoxide]. The reaction was stopped by addition of 12.5 μl of an EDTA/detection solution [16 mM EDTA, 40 mM ATP, 0.08% Triton X-100, 4 mg/ml PVT-streptavidin-SPA beads (Amersham Co.)]. After 10 minutes' incubation, the SPA beads were pelleted by 10-minute centrifugation at 1000×G. The measurement was performed in a Topcount scintillation meter from the Perkin Elmer company. […] The IC50 values were determined by a 4-parameter fit using in-house software. […]

ITK = biological target: T2, ITK (Homo sapiens, UniProt Q08881); assay: ITK kinase assay a) (polyGT, FRET); details: polyGT substrate, 1.3 μM ATP
T2 sequence (Q08881 1-620): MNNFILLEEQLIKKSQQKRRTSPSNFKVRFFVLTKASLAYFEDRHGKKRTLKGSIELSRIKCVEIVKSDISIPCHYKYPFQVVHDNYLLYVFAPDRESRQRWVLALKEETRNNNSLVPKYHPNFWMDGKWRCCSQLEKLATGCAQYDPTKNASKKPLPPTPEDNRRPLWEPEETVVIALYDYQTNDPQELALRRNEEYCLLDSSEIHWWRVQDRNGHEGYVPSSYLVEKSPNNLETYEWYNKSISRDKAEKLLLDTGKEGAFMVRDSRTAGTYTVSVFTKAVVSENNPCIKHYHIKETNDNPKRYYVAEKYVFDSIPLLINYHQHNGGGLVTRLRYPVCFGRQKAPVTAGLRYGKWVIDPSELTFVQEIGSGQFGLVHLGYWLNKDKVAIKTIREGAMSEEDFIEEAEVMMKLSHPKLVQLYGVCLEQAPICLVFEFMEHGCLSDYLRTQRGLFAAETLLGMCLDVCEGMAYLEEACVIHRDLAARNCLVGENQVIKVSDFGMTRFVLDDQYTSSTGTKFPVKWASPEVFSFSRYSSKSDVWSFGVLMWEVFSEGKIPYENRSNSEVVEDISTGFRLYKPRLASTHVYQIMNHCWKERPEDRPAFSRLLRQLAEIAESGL
Protocol: For the determination of the kinase activity of ITK, the phosphorylation of polyGT is measured. In the kinase reaction, 106 pM ITK, 1.3 μM ATP and 20 nM polyGT are used. The reaction runs for 20 mins at RT and is then stopped by addition of EDTA (final concentration 60 mM).
The reaction buffer contains 50 mM TrisCL pH7.5, 10 mM MnCl2, 10% glycerine, 1 mM DTT, 0.1% Tween-20 and 0.1 mM Na3V04 and a protease inhibitor cocktail (“complete”, Roche diagnostics)
The measurement of the enzyme activity is effected by the determination of the phosphorylated substrates. The poly GT substrate used is biotinylated. The measurement is performed in a FRET-based assay, wherein an anti-phospho-tyrosine antibody recognises and binds the phosphorylated substrate poly GT.
The bound antibody is now in the spatial vicinity of a streptavidin-coupled fluorescence dye, which was bound to polyGt by biotin-streptavidin interaction. On excitation of the europium chelate on the phosphotyrosine antibody with […] UV light, light of the wavelength 620 nm is emitted, which in turn excites the dye XLent, which then emits light of longer wavelength (665 nm).
The detection reagents are added in 50 mM Hepes pH 7.0 with 0.1% BSA. […]
After addition of the detection reagents, the samples stand overnight at 4 degrees Celsius, in order to form the FRET-creating complexes. For example, an IC50=4 μM was measured for Example 1.7.

human Itk = biological target: T3, human Itk (Homo sapiens, UniProt Q08881); assay: ITK kinase assay b) (Itk HTRF assay); details: biotinylated myelin basic protein, 10 μM ATP
T3 construct: kinase domain of the human Itk (amino acids 352-617); 6His (N); purchased Upstate (Dundee, UK); host or cells: baculovirus infected SF21 cells
T3 sequence (Q08881 352-617): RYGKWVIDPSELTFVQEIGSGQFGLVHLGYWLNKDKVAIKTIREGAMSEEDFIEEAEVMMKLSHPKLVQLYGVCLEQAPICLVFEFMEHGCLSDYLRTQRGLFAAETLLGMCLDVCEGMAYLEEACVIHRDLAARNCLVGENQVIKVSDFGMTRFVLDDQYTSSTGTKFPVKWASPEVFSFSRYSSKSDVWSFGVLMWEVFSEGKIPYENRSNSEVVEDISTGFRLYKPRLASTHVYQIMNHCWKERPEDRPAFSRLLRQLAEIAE
From the text: Itk inhibitory activity of compounds of the present invention was quantified employing the Itk HTRF assay as described in the following paragraphs.
N-terminal 6His-tagged recombinant kinase domain of the human Itk (amino acids 352-617) expressed in baculovirus infected SF21 cells and purified using Ni^2+/NTA agarose was purchased form Upstate (Dundee, UK) and used as kinase. As substrate for the kinase reaction the biotinylated myelin basic protein was used which can be purchased form GE Healthcare (Freiburg i. Br., Germany). […]
The resulting mixture was incubated 1 h at 22° C. to allow the binding of the biotinylated phosphorylated substrate to the streptavidine-XLent and the PT66-Eu-Chelate. Subsequently the amount of phosphorylated substrate was evaluated by measurement of the resonance energy transfer from the PT66-Eu-Chelate to the streptavidine-XLent. Therefore, the fluorescence emissions at 620 nm and 665 nm after excitation at 350 nm was measured in a HTRF reader, e.g. a Rubystar (BMG Labtechnologies, Offenburg, Germany) or a Viewlux (Perkin-Elmer). […] The data were normalised (enzyme reaction without inhibitor=0% inhibition, all other assay components but no enzyme=100% inhibition) and IC50 values were calculated by a 4 parameter fit using an inhouse software.

CDK2/CycE = biological target: T4, CDK2/CycE (Homo sapiens, UniProt P24941); assay: CDK2/CycE kinase assay; details: 0.5 μM ATP, Histone IIIS substrate
T4 construct: GST; purchased ProQinase GmbH, Freiburg; host or cells: Baculovirus-infected Sf9 insect cells
Protocol: Recombinant CDK2- and CycE-GST fusion proteins, purified from Baculovirus-infected insect cells (Sf9), were purchased from ProQinase GmbH, Freiburg. Histone IIIS, which was used as the kinase substrate, was purchased from the Sigma Co.
CDK2/CycE (50 ng/data point) was incubated for 10 mins at 22° C. in the presence of different concentrations of test substances (0 μM, and within the range 0.01-100 μM) in assay buffer [50 mM tris/HCl pH8.0, 10 mM MgCl2, 0.1 mM Na orthovanadate, 1.0 mM dithiothreitol, 0.5 μM ATP, 10 μg/data point Histone IIIS, 0.2 μCi/data point ^33P-gamma ATP, 0.05% NP40, 1.25% dimethylsulfoxide]. The reaction was stopped by addition of EDTA solution (250 mM, pH8.0, 15 μl/data point).
15 μl of each reaction mixture was applied onto P30 filter strips (Wallac Co.), and non-incorporated ^33P-ATP was removed by washing the filter strips three times, for 10 mins each time, in 0.5% phosphoric acid. After drying of the filter strips for 1 hour at 70° C., the filter strips were covered with scintillator strips (MeltiLex™ A, Wallac Co.) and baked for 1 hour at 90° C. The quantity of incorporated ^33P (substrate phosphorylation) was determined by scintillation measurement in a gamma radiation meter (Wallac).

Tie-2 = biological target: T5, Tie-2 (Homo sapiens, UniProt Q02763); assay: Tie-2 kinase assay without prior activation of the kinase; details: 10 μM ATP
T5 construct: consisting of GST and the intracellular domain of Tie-2; made in house; host or cells: insect cells (Hi-5)
From the text: For the kinase assay, a recombinant fusion protein expressed in insect cells (Hi-5) and purified by glutathione-sepharose affinity chromatography, consisting of GST and the intracellular domain of Tie-2, was used. Alternatively, commercially available GST-Tie2 fusion protein (Upstate Biotechnology, Dundee, Scotland) can be used. As the substrate for the kinase reaction, the biotinylated peptide biotin-Ahx-EPKDDAYPLYSDFG (C-terminus in amide form), which can be acquired e.g. from the company Biosyntan GmbH (Berlin-Buch, Germany) was used. […]
The resulting mixture was incubated for 1 hr at 22° C. in order to allow the binding of the biotinylated phosphorylated peptide to the streptavidin-XLent and the PT66-Eu-chelate. After this, the quantity of the phosphorylated substrate peptide was determined by measurement of the resonance energy transfer from the PT66-Eu chelate to the streptavidin-XLent. For this purpose, the fluorescence emission at 620 nm and 665 nm after excitation at 350 nm was measured in a HTRF meter, e.g. Rubystar (BMG Labtechnologies, Offenburg, Germany) or Viewlux (Perkin-Elmer). The ratio of the emissions at 665 nm and at […] was used as a measure of the quantity of the phosphorylated substrate peptide. […]

T5 sequence (Q02763 770-1124 limits assumed, species assumed): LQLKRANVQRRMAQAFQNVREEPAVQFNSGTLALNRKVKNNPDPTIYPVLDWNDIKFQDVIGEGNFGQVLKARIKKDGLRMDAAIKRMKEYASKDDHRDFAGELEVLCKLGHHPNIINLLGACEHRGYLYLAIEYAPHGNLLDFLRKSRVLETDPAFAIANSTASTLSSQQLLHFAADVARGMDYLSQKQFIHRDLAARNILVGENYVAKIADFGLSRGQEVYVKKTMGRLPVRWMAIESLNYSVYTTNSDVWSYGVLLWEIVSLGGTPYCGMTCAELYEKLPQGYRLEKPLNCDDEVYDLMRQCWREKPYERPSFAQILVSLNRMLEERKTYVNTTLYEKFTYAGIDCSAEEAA

For `CCOC(=O)N=S(C)(=O)c1ccc(Nc2ncc(-c3cccs3)c(N[C@H](C)CO)n2)cc1` (mixture of isomers) [Example 1.1, (RS)—N-(ethoxycarbonyl)-S-(4-{[4-{[(R)-2-hydroxy-1-methylethyl]amino}-5-(2-thienyl)pyrimidine-2-yl]amino}phenyl)-S-methylsulfoximide], the IC50 (Aurora-C) was 2 µM.
With `CCOC(=O)N=S(C)(=O)c1ccc(Nc2ncc(-c3cccs3)c(N[C@H](CC)CO)n2)cc1Br` (mixture of isomers) [Example 1.7, (RS)—S-{2-bromo-4-[(4-{[(R)-1-(hydroxymethyl)propyl]amino}-5-(2-thienyl)pyrimidine-2-yl)amino]phenyl}-N-(ethoxycarbonyl)-S-methylsulfoximide] the IC50 (ITK) was 4 µM and the IC50 (human Itk) was 0.4 µM.
With `CCS(=N)(=O)c1ccc(Nc2ncc(-c3ccsc3)c(N[C@H](CO)CC(C)C)n2)cc1` (mixture of isomers) [Example 5.3, (RS)—S-ethyl-S-(4-{[4-{[(S)-1-(hydroxymethyl)-3-methylbutyl]amino}-5-(3-thienyl)pyrimidine-2-yl]amino}phenyl)sulfoximide] the IC50 (CDK2/CycE) was 3 µM.
`CC[C@H](CO)Nc1nc(Nc2ccc(S(C)(=N)=O)c(Br)c2)ncc1-c1cccs1` (mixture of isomers) [Example 5.5, (RS)—S-{2-bromo-4-[(4-{[(R)-1-(hydroxymethyl)propyl]amino}-5-(2-thienyl)-pyrimidine-2-yl)amino]phenyl}-S-methylsulfoximide] gave an IC50 (Tie-2) of 3 µM.
